pIC50: −log10 of the molar value. Active and inactive are the calls of the source. The calls are words filed in the database; no cut-off is given here.
Columns and labels:
CAL-27 [1] = assay: Cytotoxicity against human CAL-27 cells assessed as reduction in cell viability incubated for 24 hrs by alamar blue assay; type: functional, cell-based; settings: CAL-27, 24 h
[2] = Cytotoxicity against human normal oral epithelial cell assessed as reduction in cell viability incubated for 24 hrs by alamar blue assay; type: toxicity, cell-based; settings: normal oral epithelial cells
CAL-27 [3] = assay: Downregulation of KRAS signaling gene in human CAL-27 cells at IC50 concentration incubated for 24 hrs by RNA sequencing analysis; type: functional, cell-based
CAL-27 [4] = assay: Upregulation of epithelial mesenchymal gene in human CAL-27 cells at IC50 concentration incubated for 24 hrs by RNA sequencing analysis; type: functional, cell-based
CAL-27 [5] = assay: Cytotoxicity against human CAL-27 cells assessed as reduction in cell viability incubated for 72 hrs by alamar blue assay; type: functional, cell-based; settings: CAL-27, 72 h
CAL-27 [6] = assay: Induction of cell cycle arrest in human CAL-27 cells assessed as accumulation at G2/M phase at IC50 concentration incubated for 24 hrs by propidium iodide staining based flow cytometric analysis (reference value: […]); type: functional
CAL-27 [7] = assay: Downregulation of interferon gamma gene in human CAL-27 cells at IC50 concentration incubated for 24 hrs by RNA sequencing analysis; type: functional, cell-based
[8] = Induction of cell cycle arrest in human normal oral epithelial cell assessed as accumulation at G2/M phase at IC50 concentration incubated for 24 hrs by propidium iodide staining based flow cytometric analysis (reference value: 12.79 %); type: toxicity
[9] = Induction of cell cycle arrest in human normal oral epithelial cell assessed as accumulation at G1 phase at IC50 concentration incubated for 24 hrs by propidium iodide staining based flow cytometric analysis (reference value: 55.49 %); type: toxicity
CAL-27 [10] = assay: Induction of cell cycle arrest in human CAL-27 cells assessed as accumulation at G1 phase at IC50 concentration incubated for 24 hrs by propidium iodide staining based flow cytometric analysis (reference value: 61.61 %); type: functional
CAL-27 [11] = assay: Upregulation of myogenesis gene in human CAL-27 cells at IC50 concentration incubated for 24 hrs by RNA sequencing analysis; type: functional, cell-based
CAL-27 [12] = assay: Upregulation of glycolysis gene in human CAL-27 cells at IC50 concentration incubated for 24 hrs by RNA sequencing analysis; type: functional, cell-based
CAL-27 [13] = assay: Downregulation of estrogen response gene in human CAL-27 cells at IC50 concentration incubated for 24 hrs by RNA sequencing analysis; type: functional, cell-based
CAL-27 [14] = assay: Upregulation of MTORC1 signaling gene in human CAL-27 cells at IC50 concentration incubated for 24 hrs by RNA sequencing analysis; type: functional, cell-based
CAL-27 [15] = assay: Upregulation of TNF-alpha signaling NF-kappaB gene in human CAL-27 cells at IC50 concentration incubated for 24 hrs by RNA sequencing analysis; type: functional, cell-based
CAL-27 [16] = assay: Downregulation of G2M checkpoint gene in human CAL-27 cells at IC50 concentration incubated for 24 hrs by RNA sequencing analysis; type: functional, cell-based
CAL-27 [17] = assay: Upregulation of apoptosis gene in human CAL-27 cells at IC50 concentration incubated for 24 hrs by RNA sequencing analysis; type: functional, cell-based
CAL-27 [18] = assay: Downregulation of mitotic spindle in human CAL-27 cells at IC50 concentration incubated for 24 hrs by RNA sequencing analysis; type: functional, cell-based
CAL-27 [19] = assay: Induction of cell cycle arrest in human CAL-27 cells assessed as decrease in cells at S phase at IC50 concentration incubated for 24 hrs by propidium iodide staining based flow cytometric analysis (reference value: 23.97 %); type: functional; parameters: scale not given: the % may be the effect or the level left
CAL-27 [20] = assay: Downregulation of E2F gene in human CAL-27 cells at IC50 concentration incubated for 24 hrs by RNA sequencing analysis; type: functional, cell-based
CAL-27 [21] = assay: Antimigratory activity against human CAL-27 cells assessed as reduction in number of colonies at 14 uM replaced with fresh medium for every 2 days for 10 days by crystal violet staining based inverted microscopic analysis (reference value: 234); type: functional; settings: time 10 day
CAL-27 [22] = assay: Upregulation of KRAS signaling gene in human CAL-27 cells at IC50 concentration incubated for 24 hrs by RNA sequencing analysis; type: functional, cell-based
CAL-27 [23] = assay: Antimigratory activity against human CAL-27 cells at 14 uM after 24 hrs by scratch wound healing assay; type: functional
CAL-27 [24] = assay: Upregulation of IL2 STAT5 signaling gene in human CAL-27 cells at IC50 concentration incubated for 24 hrs by RNA sequencing analysis; type: functional, cell-based
CAL-27 [25] = assay: Downregulation of MTORC1 signaling gene in human CAL-27 cells at IC50 concentration incubated for 24 hrs by RNA sequencing analysis; type: functional, cell-based
CAL-27 [26] = assay: Downregulation of MYC gene in human CAL-27 cells at IC50 concentration incubated for 24 hrs by RNA sequencing analysis; type: functional, cell-based
CAL-27 [27] = assay: Upregulation of hypoxia related gene in human CAL-27 cells at IC50 concentration incubated for 24 hrs by RNA sequencing analysis; type: functional, cell-based
CAL-27 [28] = assay: Upregulation of p53 pathway in human CAL-27 cells at IC50 concentration incubated for 24 hrs by RNA sequencing analysis; type: functional, cell-based
CAL-27 [29] = assay: Cytotoxicity against human CAL-27 cells assessed as reduction in cell viability incubated for 48 hrs by alamar blue assay; type: functional, cell-based; settings: CAL-27, 48 h
CAL-27 [30] = assay: Antimigratory activity against human CAL-27 cells assessed as reduction in gap closure at 14 uM after 24 hrs by scratch wound healing assay (reference value: 65.2%); type: functional; parameters: scale not given: the % may be the effect or the level left
[31] = Induction of cell cycle arrest in human normal oral epithelial cell assessed as reduction in cells at S phase at IC50 concentration incubated for 24 hrs by propidium iodide staining based flow cytometric analysis (reference value: 31.85 %); type: toxicity; parameters: scale not given: the % may be the effect or the level left

## COc1ccc(/C=C/c2nc3ccccc3c(=O)[nH]2)cc1
CAL-27 [1]
  pIC50: 4.85
[2]
  IC50 at 24 h: 13 µM

## O=c1[nH]c(/C=C/c2cccc(F)c2)nc2ccccc12
CAL-27 [1]
  pIC50: 4.80
[2]
  IC50 at 24 h: 26 µM

## C/C(=C\c1ccccc1)c1nc2ccccc2c(=O)[nH]1
CAL-27 [1]
  pIC50: 5.07
[2]
  IC50 at 24 h: 15 µM

## O=c1[nH]c(/C=C/c2ccc(F)cc2)nc2ccccc12
CAL-27 [3]
  Activity: Active
CAL-27 [4]
  Activity: Active
CAL-27 [5]
  pIC50: 5.10
CAL-27 [6]
  Activity: 14.24%
CAL-27 [7]
  Activity: Active
[8]
  Activity: 13.79%
[9]
  Activity: 55.99%
CAL-27 [10]
  Activity: 76.12%
CAL-27 [11]
  Activity: Active
CAL-27 [12]
  Activity: Active
CAL-27 [13]
  Activity: Active
CAL-27 [14]
  Activity: Active
CAL-27 [15]
  Activity: Active
CAL-27 [16]
  Activity: Active
CAL-27 [17]
  Activity: Active
CAL-27 [18]
  Activity: Active
CAL-27 [19]
  Activity: 9.76%
CAL-27 [20]
  Activity: Active
CAL-27 [21]
  Activity: 158
CAL-27 [22]
  Activity: Active
CAL-27 [23]
  Activity: 64%
CAL-27 [24]
  Activity: Active
CAL-27 [25]
  Activity: Active
CAL-27 [26]
  Activity: Active
CAL-27 [27]
  Activity: Active
CAL-27 [28]
  Activity: Active
CAL-27 [29]
  pIC50: 5.00
CAL-27 [30]
  Activity: 36%
[31]
  Activity: 30.19%
CAL-27 [1]
  pIC50: 4.89
[2]
  IC50 at 24 h: 41.4 µM

## N#Cc1ccc(/C=C/c2nc3ccccc3c(=O)[nH]2)cc1
CAL-27 [1]
  pIC50: 4.77
[2]
  IC50 at 24 h: 25 µM

## O=c1[nH]c(/C=C/c2cccs2)nc2ccccc12
CAL-27 [1]
  pIC50: 4.95
[2]
  IC50 at 24 h: 16.2 µM

## O=c1[nH]c(/C=C/c2ccc(Cl)cc2)nc2ccccc12
CAL-27 [1]
  pIC50: 4.81
[2]
  IC50 at 24 h: 17 µM

## CN(C)c1ccc(/C=C/c2nc(O)c3ccccc3n2)cc1
CAL-27 [1]
  pIC50: 4.87
[2]
  IC50 at 24 h: 31 µM

## Cc1ccc(/C=C/c2nc(O)c3ccccc3n2)cc1
CAL-27 [1]
  pIC50: 4.84
[2]
  IC50 at 24 h: 14 µM

## O=c1[nH]c(/C=C/c2c(F)c(F)c(F)c(F)c2F)nc2ccccc12
CAL-27 [1]
  pIC50: 4.87
[2]
  IC50 at 24 h: 17 µM

## O=c1[nH]c(/C=C/c2ccc([N+](=O)[O-])cc2)nc2ccccc12
CAL-27 [1]
  pIC50: 4.80
[2]
  IC50 at 24 h: 12 µM

From ChEMBL document CHEMBL5252579, “Discovery of fluorinated 2‑Styryl 4(3H)-quinazolinone as potential therapeutic hit for oral cancer” (Bioorg Med Chem, 2023)
